Results published in US20150313913A1, “POSITIVE ALLOSTERIC MODULATORS OF THE GABA-A RECEPTOR IN THE TREATMENT OF AUTISM” (UNIVERSITY OF WASHINGTON THROUGH ITS CENTER FOR …, priority 2013, published 2015).
Entries after “also recorded” stand apart in the source; their conditions may differ.

Legend:
[1] = in vivo; cited from earlier work
GABA-A receptor = details: Table 1, exemplary benzodiazepines; cited from earlier work
[2] = Table 1, values marked *; cited from earlier work
BTBR mice [3] = assay: Context-dependent fear conditioning test; format: in vivo; details: 0.05 mg/kg
Source text: The contextual fear-conditioning chamber was a square arena (25×25 cm) with clear PLEXIGLAS™ walls and a metal grid floor connected to a circuit board that delivered shocks to the metal grid (COULBOURN INSTRUMENTS™). An analog camera was attached on top of the chamber. The camera and the circuit board were connected to a personal computer, and its software (FREEZE FRAME™ 2.0, ACTIMETRICS™) controlled the circuit and recorded the data. The chamber was cleaned with 70% ethanol and wiped with paper towels before each session. In the habituation session, a test mouse was placed in the chamber and allowed to explore for 2 min^66-69. Immediately after habituation, the test mouse received a single mild foot shock (2 s, 0.5 mA). After staying in the chamber one more min, the mouse was removed from the chamber. For the 30-min short-term memory test, the mouse was returned to the context 30 min after the end of the training session. For 24-hr long-term memory test, the mouse was returned to the context 24 hr after the training session. The movement of mice was also recorded by a USB webcam (LIFECAM™ HD-6000, MICROSOFT™) and PC-based video capture software (WINAVI™ Video Capture, ZJ MEDIA DIGITAL TECHNOLOGY™) for 2 min. The recorded video file was further analyzed by off-line video tracking software (ETHOVISION™ XT 7.0, NOLDUS TECHNOLOGY™). The freezing scores were calculated by dividing the test session into 1 min bouts and averaging together all 2 min for each animal. All data shown.
Freezing behavior is defined as the period during which the velocity of the test mouse is less than 1.75 cm/s, and non-freezing behavior is defined as the period during which the velocity of the mouse is greater than 2 cm/s.

Scn1a+/− mice = assay: Three-chamber social preference test; format: in vivo; details: low doses, narrow dose range (FIGS. 41N, 41O)
Source text: The mouse was allowed to freely explore each chamber. […] The recorded video file was further analyzed by off-line video tracking software (ETHOVISION™ XT 7.0). […] All data shown are means±s.e.m. and analyzed using two-way ANOVA with Bonferroni's post hoc analysis and one-way ANOVA with Tukey's post hoc analysis.
Oral administration is specifically contemplated for the methods described herein, and is well known for both benzodiazepines and non-BDZ GABA-A enhancers as described herein.
(§1) The test was performed as described previously (Han et al., 2012) with minor modifications. The threechamber apparatus is a non-transparent Plexiglas box (30×60 cm) with two transparent partitions that make left, center, and right chambers (30×20 cm). In the first 10-min session, a test mouse was placed in the center of the empty three-chamber unit to habituate the test mouse. The mouse was allowed to freely explore each chamber. In the second 10-min session, an age- and gender-matched same strain mouse that had never been exposed to the test mouse, was placed in one of the two wire cages. The empty wire cage as an inanimate object cue was placed on the other side. Then, the test mouse was placed again in the center, and allowed to freely explore the chamber for 10 min. Time spent in each chamber, and time spent within a 5 cm radius proximal to each wire cage, as a close interaction were measured by the videotracking software (EthoVision XT 8.5, Noldus Technology). All data shown are means±s.e.m. and analyzed using two-way ANOVA with Bonferroni's post hoc analysis and one-way ANOVA with Tukey's post hoc analysis.
(§2) L-838,417, and DMCM (Sigma), dissolved in 100% DMSO (sterile, Sigma) was diluted in PBS (the final concentration of DMSO was ranged from 0.005% to 0.1%). Drugs were administered by an intraperitoneal injection in a volume of […] 30 min before the behavioral tests.

BTBR mice [4] = assay: Three-chamber social interaction test; details: for social interaction (time with stranger mouse, close interaction), dose series: single i.p. injection 30 min before test, low/increasing doses
Procedure: In the three-chamber test, a test mouse is placed in the center chamber, and the preference of the test mouse for interaction with an inanimate object (a small empty cage) in the left chamber vs. a stranger mouse in an identical cage in the right chamber using a digital camera and quantitative video-tracking analysis.
as §1, §2

C57BL/6J mice [5] = assay: Three-chamber social interaction test; format: in vivo
Source text: The mouse was allowed to freely explore each chamber.

[6] = system: mouse genetic models of human Dravet syndrome and idiopathic autism; assay: Summary: low-dose treatment of mouse models of autism; format: in vivo, mice; details: low doses that do not induce sedative or anxiolytic effects
Source text: The present disclosure describes methods effective in the rescue or amelioration of autism-like behavior, cognitive deficit, and context-dependent spatial memory.
In particular embodiments, these methods comprise the administration of low doses of a benzodiazepine to a human or other mammalian subject in order to rescue autism-like behavior, cognitive deficit, and context-dependent spatial memory. […] At such low doses, the administration of benzodiazepines, such as CLZ, to mammalian subjects will result in improvement of autism-like behavior, cognitive deficit, and context-dependent spatial learning and memory with much lower levels of sedation compared to mammalian subjects who receive typical higher doses of CLZ or other benzodiazepines that are used for treatment of anxiety, insomnia, or seizure.
The present disclosure is also directed to methods of rescuing or ameliorating indicia of Autism Spectrum disorders, autism-like behavior, cognitive deficit, and context-dependent spatial learning and memory in Dravet syndrome or idiopathic autism with α-2,3-specific GABA-A receptor positive allosteric modifiers. Such α-2,3-subunit selective GABA-A receptor positive allosteric modifiers include L838,417.
Therapeutic approaches to treat autistic traits in animal studies or in clinical trials have primarily focused on reducing excitatory neurotransmission in glutamatergic synapses to rebalance E/I ratio in autistic brain (Michalon et al., 2012; Yang et al., 2012). However, autistic-like behaviors in ASD mouse models are only partially reversed by drugs that inhibit excitatory neurotransmission, and these drugs also have unwanted side effects on wild-type mice (Henderson et al., 2012; Michalon et al., 2012; Yang et al., 2012). To overcome these drawbacks, the inventors focused on the opposing side, the GABAergic inhibitory transmission in autistic brain. Their results highlight the potential for therapy of autistic-like behaviors and cognitive deficit in ASD by low-dose treatment with subunit-selective benzodiazepines and other positive allosteric modulators of GABA-A receptors. […] It is possible that the biphasic dose-response relationship of the positive allosteric modulators reflects their actions on receptors containing α2,3 subunits at low doses and on receptors containing α1 subunits at higher doses.

C57BL/6J mice [7] = assay: Elevated plus maze test; format: in vivo; details: 0.2 mg/kg
Procedure: The test was performed as previously described (Han et al., 2012). The maze used in this study has two closed arms (5.1×30 cm) surrounded by 20-cm high non-transparent walls and two open arms (5.1×30 cm). During the 10 min of trial, times spent in closed, center, and open arms, and total distance traveled during the trial were measured by the video-tracking software (EthoVision XT 8.5, Noldus Technology).

C57BL/6J mice [8] = assay: Open field test; format: in vivo; details: 0.2 mg/kg
Procedure: (§3) Open field test was performed as previously described (Han et al., 2012). 50×50 cm square open field arena with non-transparent white Plexiglas was used in this study. During the 10 min of trial, total distance moved, circling behavior (a complete 360-degree turn of nose angle with respect to the body center) and time in center (20×20 cm imaginary square) were measured by the video-tracking software (EthoVision XT 8.5, Noldus Technology).

BTBR mice [9] = assay: Open field test; format: in vivo; details: clobazam 0.05 mg/kg
Procedure: as §3

In the case of `Cc1nnc2n1-c1ccc(Cl)cc1C(c1ccccc1Cl)=NC2` [Triazolam], the half-life [1] is given as 2 to 3 h, the “Effect at GABA-A receptor” value (GABA-A receptor) is given as “Agonist” and the “Dose in humans for anti-anxiety, anti-convulsive, or sedative effects: equivalent dose to 10 mg diazepam” value [2] is given as 0.25 mg.
With `Cc1ccc(-c2nc3ccc(C)cn3c2CC(=O)N(C)C)cc1` [zolpidem] the “long-term (24 h) memory” value (BTBR mice [3]) was “not long-term memory”, the “short-term (30 min) memory” value (BTBR mice [3]) was “enhanced short-term memory” and the “social interactions in three-chamber test” value (Scn1a+/− mice) was “not effective”. For the same compound, the “social behavior (close interaction)” value (BTBR mice [4]; 0.5 mg/kg) was “made social behavior worse”, the “sedation / total distance moved during the three-chamber test” value (BTBR mice [4]; dose range up to 0.5 mg/kg (clonazepam: test doses)) was “dose-dependently decreased” and the “total movement during the three-chamber test at high dose” value (BTBR mice [4]; high doses, zolpidem 0.5 mg/kg) was “significantly decreased”. For the same compound, the “effect on social interaction at doses above the maximally effective dose” value (BTBR mice [4]; higher doses) was “aggravated their social interaction deficit at high doses”, the “social interaction (time with stranger mouse, close interaction), dose series” value (shortened to “social interaction … dose series”) (BTBR mice [4]) was “failed to show beneficial effects” and the “social interaction … dose series” value (BTBR mice [4]; listed as Zolpidem) was “failed to rescue social deficit”. The “social behavior, dose series” value (C57BL/6J mice [5]; L-838,417 / zolpidem (FIGS. 45I, 45J)) was “dose-dependently impaired”, the “social behavior at high dose” value (C57BL/6J mice [5]; high dose) was “impaired” and the “autistic-like behaviors and cognitive deficit in BTBR mice (summary)” value [6] was “opposite effects”.
In the case of `CCc1c(C(=O)OC)ncc2[nH]c3cc(OC)c(OC)cc3c12` [DMCM], the “anxiety levels (time in the open arms)” value (C57BL/6J mice [7]) was “not altered”, the “number of entries in the open arms” value (C57BL/6J mice [7]) was “unchanged” and the “general locomotor behavior (distance moved)” value (C57BL/6J mice [8]) was “not altered”. The “time spent in center” value (C57BL/6J mice [8]) was “unaltered” and the “normal social interaction behavior” value (C57BL/6J mice [5]; 0.2 mg/kg single injection 30 min prior) was “impaired; also recorded: substantially reduced”.
For `CN1C(=O)CC(=O)N(c2ccccc2)c2cc(Cl)ccc21` [Clobazam], the social interaction deficit (BTBR mice [4]; 0.05 mg/kg (low dose) 30 min before test) was “ameliorated social interaction deficits”, the “time in the chamber with the stranger mouse” value (BTBR mice [4]; FIG. 9) was “increased” and the “time of interaction with the stranger mouse” value (BTBR mice [4]; FIG. 9) was “increased”. For the same compound, the “social interaction … dose series” value (BTBR mice [4]) was “increases”, the “Effect at GABA-A receptor” value (GABA-A receptor) was “Agonist” and the “anxiolytic effect (time spent in center)” value (BTBR mice [9]) was “without sedative (FIG. 41C) or anxiolytic effects”. For the same compound, the “sedative effect (total distance moved)” value (BTBR mice [9]) was “without sedative”, the “social interaction of control mice” value (C57BL/6J mice [5]; clobazam, FIG. 9) was “no effect” and the “autistic-like behaviors and cognitive deficit in BTBR mice (summary)” value [6] was “improved”. For the same compound, the “Dose in humans for anti-anxiety, anti-convulsive, or sedative effects: equivalent dose to 10 mg diazepam” value [2] was 20 mg.
